According to US8912120B2, “Herbicidal compositions comprising 4-amino-3-chloro-5-fluoro-6-(4-chloro-2-fluoro-3-methoxyphenyl) pyridine-2-carboxylic acid or a derivative thereof and synthetic auxin herbicides” (Dow AgroSciences, LLC., priority 2012, dated 2014):
Where two headings read alike, the source gives them in different places.

What was measured:
ECHCO = test: Example I: postemergence foliar-applied herbicidal mixtures, direct seeded rice, ECHCO; details: for Visual Weed Control (%) - 21 DAA ECHCO Obs: Fluroxypyr MHE 0 gae/ha
Protocol: (§2) The soil matrix was contained in plastic pots with a volume of 1 quart and a surface area of 83.6 square centimeters (cm^2). […] The plants were grown for 8-22 days in a greenhouse with an approximate 14 h photoperiod which was maintained at about 29° C. during the day and 26° C. during the night. Nutrients (Peters Excel® 15-5-15 5-Ca 2-Mg and iron chelate) were applied in the irrigation solution as needed and water was added on a regular basis. Supplemental lighting was provided with overhead metal halide 1000-Watt lamps as necessary. The plants were employed for testing when they reached the first through fourth true leaf stage.
(§3) Treatments consisted of the acid or esters of 4-amino-3-chloro-5-fluoro-6-(4-chloro-2-fluoro-3-methoxy-phenyl)pyridine-2-carboxylic acid (Compound A), each formulated as an SC (suspension concentrate), and various herbicidal components alone and in combination. Forms of compound A were applied on an acid equivalent basis.
(§4) For treatments comprised of formulated compounds, measured amounts of compounds were placed individually in 25 mL glass vials and diluted in a volume of 1.25% (v/v) Agri-Dex® crop oil concentrated to obtain 12× stock solutions. […] Application solutions were prepared by adding an appropriate amount of each stock solution (e.g., 1 mL) and diluted to the appropriate final concentrations with the addition of 10 mL of an aqueous mixture of 1.25% (v/v) crop oil concentrate so that the final spray solutions contained 1.25+/−0.05% (v/v) crop oil concentrate.
(§5) All stock solutions and applications solutions were visually inspected for compound compatibility prior to application. Spray solutions were applied to the plant material with an overhead Mandel track sprayer equipped with a 8002E nozzles calibrated to deliver 187 L/ha over an application area of 0.503 m^2 at a spray height of 18 to 20 inches (46 to 50 cm) above average plant canopy height. Control plants were sprayed in the same manner with the solvent blank.
(§6) The treated plants and control plants were placed in a greenhouse as described above and watered by sub-irrigation to prevent wash-off of the test compounds. After approximately 3 weeks, the condition of the test plants as compared with that of the untreated plants was determined visually and scored on a scale of 0 to 100 percent where 0 corresponds to no injury or growth inhibition and 100 corresponds to complete kill.
(§7) Colby's equation was used to determine the herbicidal effects expected from the mixtures (Colby, S. R. 1967. Calculation of the synergistic and antagonistic response of herbicide combinations. Weeds 15:20-22).
(§8) The following equation was used to calculate the expected activity of mixtures containing two active ingredients, A and B: Expected=A+B−(A×B/100)
(§9) A=observed efficacy of active ingredient A at the same concentration as used in the mixture.
(§10) B=observed efficacy of active ingredient B at the same concentration as used in the mixture.

LEFCH [1] = test: Example I: postemergence foliar-applied herbicidal mixtures, direct seeded rice, LEFCH; format: in vivo, Leptochloa chinensis (Chinese sprangletop)
ECHCG [2] = test: Example I: postemergence foliar-applied herbicidal mixtures, direct seeded rice, ECHCG
IPOHE = test: Example I: postemergence foliar-applied herbicidal mixtures, direct seeded rice, IPOHE; format: in vivo, Ipomoea hederacea (ivyleaf morningglory)
Protocol: as §2, §3, §4, §5, §6, §7, §8, §9, §10

DIGSA = test: Example I: postemergence foliar-applied herbicidal mixtures, direct seeded rice, DIGSA
Protocol: as §2, §3, §4, §5, §6, §7, §8, §9, §10

ECHCG [3] = test: Example II: in-water applied herbicidal mixtures, transplanted paddy rice, ECHCG; format: in vivo, Echinochloa crus-galli (barnyardgrass); details: for Visual Weed Control (%) - 21 DAA ECHCG Obs / Visual Weed Control (%) - 22 DAA ECHCG Obs: in-water application
Outline: (§1)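 Greenhouse paddy pots of dried mud; rice seedlings at the second or third leaf stage were transplanted into mud 4 days before treatment. Osmocote 19:6:12 supplied nutrients. Solutions were pipetted individually and sequentially into the paddy water, with equal acetone and crop oil concentrate across treatments; controls got solvent blank.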

SCPMA = test: Example II: in-water applied herbicidal mixtures, transplanted paddy rice, SCPMA; format: in vivo
Outline: as §1

SONAR = test: Example V: postemergence herbicidal activity of mixtures in forage crops, SONAR; format: in vivo, Sonchus arvensis (field sowthistle); details: alone, foliar, approximately 21 days
Protocol: Seeds or root cuttings of the desired test plant species were planted in Sun Gro MetroMix® 306 planting mixture, which typically has a pH of 6.0 to 6.8 and an organic matter content of about 30 percent, in plastic pots with a surface area of 126.6 square centimeters (cm^2). […] The plants were grown for 14-60 days in a greenhouse with an approximate 14 hour photoperiod which was maintained at approximately 28° C. during the day and 24° C. during the night.
Spray solutions of the second herbicide or experimental compound mixtures were prepared by adding the stock solutions to the appropriate amount of dilution solution to form 12 mL spray solution with active ingredients in two-way combinations.

CYPIR = test: Example I: postemergence foliar-applied herbicidal mixtures, direct seeded rice, CYPIR; format: in vivo, Cyperus iria (rice flatsedge)
Protocol: as §2, §3, §4, §5, §6, §7, §8, §9, §10

CYPRO = test: Example II: in-water applied herbicidal mixtures, weed control in transplanted paddy rice (greenhouse), CYPRO; format: in vivo, Cyperus rotundus (purple nutsedge); details: for Visual Weed Control (%) - 21 DAA CYPRO Obs / Visual Weed Control (%) - 22 DAA CYPRO Obs: in-water application; for Visual Weed Control (%) Obs: 20 DAA
Outline: as §1

LEFCH [4] = test: Example II: in-water applied herbicidal mixtures, transplanted paddy rice, LEFCH; format: in vivo, Leptochloa chinensis (Chinese sprangletop); details: for Visual Weed Control (%) - 21 DAA LEFCH Obs / Visual Weed Control (%) - 25 DAA LEFCH Obs: in-water application
Outline: as §1

ECHOR = test: Example II: in-water applied herbicidal mixtures, transplanted paddy rice, ECHOR; format: in vivo, Echinochloa oryzoides (early watergrass); details: for Visual Weed Control (%) - 20 DAA ECHOR Obs / Visual Weed Control (%) - 22 DAA ECHOR Obs: in-water application
Outline: as §1

`COc1c(Cl)ccc(-c2nc(C(=O)OCc3ccccc3)c(Cl)c(N)c2F)c1F` [Compound A Benzyl Ester, benzyl ester of 4-amino-3-chloro-5-fluoro-6-(4-chloro-2-fluoro-3-methoxy-phenyl)pyridine-2-carboxylic acid] was tested, and the “Visual Weed Control (%) - 20 DAA ECHCO Obs” value (ECHCO; 4.38 gae/ha) was 50%, the “Visual Weed Control (%) - 23 DAA ECHCO Obs” value (ECHCO; 4.38 gae/ha) was 40% and the “Visual Weed Control (%) - 20 DAA ECHCO Obs” value (ECHCO; 8.75 gae/ha) was 75%. The “Visual Weed Control (%) - 23 DAA ECHCO Obs” value (ECHCO; 8.75 gae/ha) was 40%, the “Visual Weed Control (%) - 23 DAA ECHCO Obs” value (ECHCO; 17.5 gae/ha) was 75% and the “Visual Weed Control (%) - 21 DAA ECHCO Obs” value (ECHCO; Compound A Benzyl Ester rate printed '—' (second line)) was 75%. The “Visual Weed Control (%) - 21 DAA ECHCO Obs” value (ECHCO; Compound A Benzyl Ester rate printed '—') was 70%, the “Visual Weed Control (%) - 20 DAA LEFCH Obs” value (LEFCH [1]; 4.38 gae/ha) was 0% and the “Visual Weed Control (%) - 20 DAA LEFCH Obs” value (LEFCH [1]; 8.75 gae/ha) was 20%. The “Visual Weed Control (%) - 19 DAA LEFCH Obs” value (LEFCH [1]; 16 gae/ha) was 58%, the “Visual Weed Control (%) - 21 DAA ECHCG Obs” value (ECHCG [2]; 4.38 gae/ha) was 48% and the “Visual Weed Control (%) - 23 DAA ECHCG Obs” value (ECHCG [2]; 4.38 gae/ha) was 40%. For the same compound, the “Visual Weed Control (%) - 21 DAA ECHCG Obs” value (ECHCG [2]; 8.75 gae/ha) was 55%, the “Visual Weed Control (%) - 23 DAA ECHCG Obs” value (ECHCG [2]; 8.75 gae/ha) was 55% and the “Visual Weed Control (%) - 21 DAA ECHCG Obs” value (ECHCG [2]; Compound A Benzyl Ester rate printed '—' (second line), Fluroxypyr MHE 0 gae/ha) was 85%. The “Visual Weed Control (%) - 21 DAA ECHCG Obs” value (ECHCG [2]; Compound A Benzyl Ester rate printed '—', Fluroxypyr MHE 0 gae/ha) was 10%, the “Visual Weed Control (%) - 20 DAA IPOHE Obs” value (IPOHE; 4.38 gae/ha) was 0% and the “Visual Weed Control (%) - 20 DAA IPOHE Obs” value (IPOHE; 8.75 gae/ha) was 10%. For the same compound, the “Visual Weed Control (%) - 20 DAA IPOHE Obs” value (IPOHE; 17.5 gae/ha) was 25%, the “Visual Weed Control (%) - 23 DAA DIGSA Obs” value (DIGSA; 4.38 gae/ha) was 0% and the “Visual Weed Control (%) - 23 DAA DIGSA Obs” value (DIGSA; 8.75 gae/ha) was 0%. For the same compound, the “Visual Weed Control (%) - 23 DAA DIGSA Obs” value (DIGSA; 17.5 gae/ha) was 15%, the “Visual Weed Control (%) - 20 DAA DIGSA Obs” value (DIGSA; 35 gae/ha) was 38% and the “Visual Weed Control (%) - 21 DAA ECHCG Obs” value (ECHCG [3]; 4.38 gae/ha) was 0%. For the same compound, the “Visual Weed Control (%) - 22 DAA ECHCG Obs” value (ECHCG [3]; 4.38 gae/ha) was 30%, the “Visual Weed Control (%) - 21 DAA ECHCG Obs” value (ECHCG [3]; 8.75 gae/ha) was 0% and the “Visual Weed Control (%) - 22 DAA ECHCG Obs” value (ECHCG [3]; 8.75 gae/ha) was 45%. For the same compound, the “Visual Weed Control (%) - 21 DAA ECHCG Obs” value (ECHCG [3]; 17.5 gae/ha) was 25%, the “Visual Weed Control (%) Obs” value (ECHCG [3]; 19 DAA, 8 gae/ha) was 35% and the “Visual Weed Control (%) Obs” value (ECHCG [3]; 19 DAA, 16 gae/ha) was 85%. For the same compound, the “Visual Weed Control (%) Obs” value (ECHCG [3]; 20 DAA, 4.38 gae/ha) was 15%, the “Visual Weed Control (%) Obs” value (ECHCG [3]; 20 DAA, 8.75 gae/ha) was 20% and the “Visual Weed Control (%) Obs” value (ECHCG [3]; 20 DAA, 17.5 gae/ha) was 40%. The “Visual Weed Control (%) Obs” value (ECHCG [3]; 22 DAA, 4.38 gae/ha) was 30%, the “Visual Weed Control (%) Obs” value (ECHCG [3]; 22 DAA, 8.75 gae/ha) was 45% and the “Visual Weed Control (%) Obs” value (ECHCG [3]; 22 DAA, 17.5 gae/ha) was 90%. The “Visual Weed Control (%) Obs” value (SCPMA; 20 DAA, 35 gae/ha) was 0%, the “Visual Weed Control (%) Obs” value (SCPMA; 20 DAA, 70 gae/ha) was 0% and the “Visual Weed Control (%) Obs” value (SCPMA; 21 DAA, 4.38 gae/ha) was 0%. For the same compound, the “Visual Weed Control (%) Obs” value (SCPMA; 21 DAA, 8.75 gae/ha) was 0%, the “Visual Weed Control (%) Obs” value (SCPMA; 21 DAA, 17.5 gae/ha) was 0% and the “Visual Weed Control (%) Obs” value (SCPMA; 22 DAA, 4.38 gae/ha) was 0%. The “Visual Weed Control (%) Obs” value (SCPMA; 22 DAA, 8.75 gae/ha) was 0%, the “Visual Weed Control (%) Obs” value (SCPMA; 22 DAA, 17.5 gae/ha) was 0% and the “SONAR Obs (observed value)” value (SONAR; 4.4 gae/ha) was 65%. The “SONAR Obs (observed value)” value (SONAR; 8.8 gae/ha) was 100%, the “SONAR Obs (observed value)” value (SONAR; 17.5 gae/ha) was 95% and the “Visual Weed Control (%) - 21 DAA CYPIR Obs” value (CYPIR; 4.38 gae/ha) was 75%. For the same compound, the “Visual Weed Control (%) - 20 DAA CYPIR Obs” value (CYPIR; 8.75 gae/ha) was 35%, the “Visual Weed Control (%) - 21 DAA CYPIR Obs” value (CYPIR; 8.75 gae/ha) was 85% and the “Visual Weed Control (%) - 21 DAA CYPRO Obs” value (CYPRO; 4.38 gae/ha) was 0%. For the same compound, the “Visual Weed Control (%) - 22 DAA CYPRO Obs” value (CYPRO; 4.38 gae/ha) was 90%, the “Visual Weed Control (%) - 21 DAA CYPRO Obs” value (CYPRO; 8.75 gae/ha) was 0% and the “Visual Weed Control (%) - 22 DAA CYPRO Obs” value (CYPRO; 8.75 gae/ha) was 70%. The “Visual Weed Control (%) Obs” value (CYPRO; 4.38 gae/ha) was 0%, the “Visual Weed Control (%) Obs” value (CYPRO; 8.75 gae/ha) was 0% and the “Visual Weed Control (%) - 21 DAA LEFCH Obs” value (LEFCH [4]; 4.38 gae/ha) was 0%. For the same compound, the “Visual Weed Control (%) - 21 DAA LEFCH Obs” value (LEFCH [4]; 8.75 gae/ha) was 0%, the “Visual Weed Control (%) - 25 DAA LEFCH Obs” value (LEFCH [4]; 8.75 gae/ha) was 50% and the “Visual Weed Control (%) - 21 DAA LEFCH Obs” value (LEFCH [4]; 17.5 gae/ha) was 0%. The “Visual Weed Control (%) - 25 DAA LEFCH Obs” value (LEFCH [4]; 17.5 gae/ha) was 90%, the “Visual Weed Control (%) Obs” value (LEFCH [4]; 19 DAA, 35 gae/ha) was 80% and the “Visual Injury (%) Obs” value (LEFCH [4]; 25 DAA, 8.75 gae/ha) was 50%. For the same compound, the “Visual Weed Control (%) Obs” value (LEFCH [4]; 25 DAA, 8.75 gae/ha) was 50%, the “Visual Injury (%) Obs” value (LEFCH [4]; 25 DAA, 17.5 gae/ha) was 90% and the “Visual Weed Control (%) Obs” value (LEFCH [4]; 25 DAA, 17.5 gae/ha) was 90%. The “Visual Weed Control (%) - 20 DAA ECHOR Obs” value (ECHOR; 4.38 gae/ha) was 10%, the “Visual Weed Control (%) - 20 DAA ECHOR Obs” value (ECHOR; 8.75 gae/ha) was 20% and the “Visual Weed Control (%) - 22 DAA ECHOR Obs” value (ECHOR; 8.75 gae/ha) was 25%. For the same compound, the “Visual Weed Control (%) - 20 DAA ECHOR Obs” value (ECHOR; 17.5 gae/ha) was 50%, the “Visual Weed Control (%) - 22 DAA ECHOR Obs” value (ECHOR; 17.5 gae/ha) was 45% and the pest or weed control at 8 g/ha (ECHOR; Echinochloa oryzoides, 456 h, read-out: Visual Weed Control (%) Obs, 19 DAA, 8 gae/ha) was 10%. The pest or weed control at 16 g/ha (ECHOR; Echinochloa oryzoides, 456 h, read-out: Visual Weed Control (%) Obs, 19 DAA, 16 gae/ha) was 25%, the pest or weed control at 32 g/ha (ECHOR; Echinochloa oryzoides, 456 h, read-out: Visual Weed Control (%) Obs, 19 DAA, 32 gae/ha) was 35% and the pest or weed control at 4.38 g/ha (ECHOR; Echinochloa oryzoides, 480 h, read-out: Visual Weed Control (%) Obs, 20 DAA, 4.38 gae/ha) was 25%. For the same compound, the pest or weed control at 8.75 g/ha (ECHOR; Echinochloa oryzoides, 480 h, read-out: Visual Weed Control (%) Obs, 20 DAA, 8.75 gae/ha) was 20%, the pest or weed control at 17.5 g/ha (ECHOR; Echinochloa oryzoides, 480 h, read-out: Visual Weed Control (%) Obs, 20 DAA, 17.5 gae/ha) was 30% and the pest or weed control at 35 g/ha (ECHOR; Echinochloa oryzoides, 480 h, read-out: Visual Weed Control (%) Obs, 20 DAA, 35 gae/ha) was 73%. It also gave a pest or weed control at 4.38 g/ha (ECHOR; Echinochloa oryzoides, 504 h, read-out: Visual Weed Control (%) Obs, 21 DAA, 4.38 gae/ha) of 15%, a pest or weed control at 8.75 g/ha (ECHOR; Echinochloa oryzoides, 504 h, read-out: Visual Weed Control (%) Obs, 21 DAA, 8.75 gae/ha) of 15% and a pest or weed control at 17.5 g/ha (ECHOR; Echinochloa oryzoides, 504 h, read-out: Visual Weed Control (%) Obs, 21 DAA, 17.5 gae/ha) of 20%. The pest or weed control at 8.75 g/ha (ECHOR; Echinochloa oryzoides, 528 h, read-out: Visual Weed Control (%) Obs, 22 DAA, 8.75 gae/ha) was 35%, the pest or weed control at 17.5 g/ha (ECHOR; Echinochloa oryzoides, 528 h, read-out: Visual Weed Control (%) Obs, 22 DAA, 17.5 gae/ha) was 30% and the pest or weed control at 8.75 g/ha (ECHOR; Echinochloa oryzoides, 600 h, read-out: Visual Weed Control (%) Obs, 25 DAA, 8.75 gae/ha) was 85%. It also gave a pest or weed control at 17.5 g/ha (ECHOR; Echinochloa oryzoides, 600 h, read-out: Visual Weed Control (%) Obs, 25 DAA, 17.5 gae/ha) of 90%.
